Source: US20140378515A1, “IMMUNOSUPPRESSIVE COMPOUNDS” (priority 2013, published 2014)
Converted amounts (≈) assume the structure as drawn.

Legend:
[1] = test system: ROS produced by human blood phagocytes; assay: Oxidative burst, luminol-enhanced chemiluminescence in whole blood; assay type: cell-based; conditions: serum opsonized zymosan
Description: Formation of the reactive oxygen species (ROS) in whole blood, during the oxidative burst was measured by the luminol-enhanced chemiluminescence assay. In brief, three concentrations of each compound (1.0, 10 and 100 μg/mL) were prepared in 25 μL of Hank's Balanced salt solution containing calcium chloride and magnesium sulfate (HBSS^++) in a half area 96-well white flat-bottomed plate (Sigma Aldrich, Steinheim, Germany) in a final volume of 100 μL. Then 25 μL of whole blood diluted 1:50 in suspension of HBSS^++ was added.
Positive and negative controls and blank wells were included. Cells and compounds were incubated for 30 minutes at 37° C., then 25 μL luminol [3-aminophthalhydrazide] (Research Organics Cleveland, Ohio, USA), were added into each well followed by 25 μL of serum opsonized zymosan (Saccharomyces cerevisiae origin) purchased from Fluka, Buchs (Switzerland) was added except for negative and blank wells. The ROS chemiluminescence kinetic was monitored with a luminometer from Labsystems (Helsinki, Finland), for 50 minutes in the repeated scan mode. Peak and total integral chemiluminescence readings were expressed in the relative light unit.

[2] = test system: NO produced by mouse macrophages J774.2 cell line; assay: Nitrite accumulation in LPS-stimulated J774.2 macrophages (Griess method); assay type: cell-based; conditions: LPS-stimulated J774.2, 24 hours
Description: The mouse macrophage cell line J774.2 obtained from ECACC, Salisbury, Wiltshire (UK) was cultured in T75 flasks in complete DMEM containing 10% fetal bovine serum and supplemented with 1% streptomycin/penicillin. Flasks were kept at 37° C. in the atmosphere of humidified air containing 5% CO2. Cell were then seeded in 24 well (10^6 cells/mL) and nitric oxide synthase (NOS-2) in the macrophages was induced by addition of 20 μg/mL E. coli lipopolysaccharide (DIFCO Laboratories, Michigan, USA). The test compounds were added at a concentration of 25 μg/mL soon after LPS stimulation and incubated at 37° C. in 5% CO2. Cell culture supernatant was collected after 24 hours. Nitrite accumulation in J774.2 cell culture supernatant was measured using the Griess method, where 50 μL of 1% sulphanilamide in 2.5% phosphoric acid, followed by 50 μL of 0.1% naphtyl-ethylene diamine dihydrochloride in 2.5% phosphoric acid were added to 50 μL culture medium. After 10 minutes of incubation at room temperature the absorbance at 550 nm was read. Micromolar concentrations of nitrite were calculated from standard curve constructed with sodium nitrite a reference compound. The results were expressed as means±SD of duplicate readings.

[3] = test system: T-cell proliferation; assay: T-cell proliferation assay (PHA-stimulated PBMNCs, 3H-thymidine incorporation); assay type: cell-based, human; design: unit not given here; conditions: PHA 5 μg/mL stimulated PBMNCs
Description: The diluted blood was then layered onto lymphocyte separation medium (MP Biomedicals, Inc., Ohio, USA) and centrifuged at 400 g for 20 min at 25° C. […] Plates were then incubated at 37° C. in a humidified atmosphere of 5% CO2 in air for 72 hours. To each well, 0.5 μCi [methyl ^3H]-thymidine (Amersham Place Little Chalfont, Buckinghamshire, UK) was added for an additional 18 hours. Cells were harvested using a cell harvester (Inotech, Dottikon, Switzerland), and incorporation and level of radioactivity was measured by a liquid scintillation counter (Beckman coulter, LS 6500, Fullerton, Calif., USA).

[4] = test system: IL-2 production; assay: IL-2 production by PHA/PMA stimulated PBMCs (ELISA); assay type: cell-based, human; conditions: experimental IL-2 IC50 listed in Table 3
Description: The PBMCs were cultured in a 96-well flat-bottomed plate (1.0×10^5 cell/well) in the presence or absence of three concentrations of test compounds (1.0, 5.0 and 20 μg/mL), and phytohemagglutinin (PHA) phorbol myristate acetate (PMA) in a final concentration of 5 ng/mL and 20 ng/mL, respectively. After an incubation period of 18 h at 37° C. in a humidified atmosphere of 5% CO2 in air, the supernatant was collected for IL-2 determination. Interleukin-2 levels were measured by using enzyme-linked immunosorbent assay (ELISA) development kit (R&D systems, Minneapolis, Minn., USA). The assay was performed according to the manufacturer's instructions. Briefly, a 96-well flat-bottomed ELISA plate was coated with 4.0 μg/mL mouse anti-human IL-2, in PBS, pH 7.4. Then, re-combinant human IL-2 standards and culture supernatant samples were added and incubated for 2 h followed by washing steps and then the addition of biotinylated goat anti-human IL-2. After an incubation period of 2 h at room temperature, the plates were again washed and streptavidin conjugated horse raddish peroxidase was added and incubated for additional 20 min at room temperature. After the final washes, an enzyme substrate solution of H2O2 and tetra methyl benzidine (1:1 v/v) was added and the color was allowed to develop at room temperature in the dark. The plates were then read at 450 nm in a plate reader (DIAReader GMBH, Wr. Neudorf, Austria). The results were analyzed using Microsoft Excel.

[5] = test system: IL-4 production; assay: IL-4 production by PHA stimulated PBMNCs (ELISA); assay type: cell-based, human; conditions: 18 h
Description: The PBMNCs were cultured in a 96-well flat-bottomed plate (2.0×10^6 cell/mL) in the presence or absence of three concentrations of test compounds (1.0, 5.0, and 25 μg/mL), and phytohemagglutinin (PHA) in a final concentration of 7.5 μg/mL. After an incubation period of 18 h at 37° C. in 5% CO2, supernatant was collected for IL-4 determination. Interleukin-4 levels were measured by using enzyme-linked immunosorbent assay (ELISA) kit (Diaclone, France). The assay was performed according to the manufacturer's instructions. Briefly, in a 96-well ELISA plate which was coated with monoclonal mouse anti-human IL-4, 100 μl recombinant human IL-4 standards and culture supernatants samples were added. The plates were incubated for 2 hours at room temperature and washed three times with wash buffer, followed by the addition of biotinylated goat anti-human IL-4 and further incubated for 1 hour at room temperature. The plates were again washed and streptavidin conjugated horse raddish peroxidase was added and incubated for an additional 20 minutes at room temperature. After three final washes, the enzyme substrate solution was added and incubated for 12 to 15 minutes to allow color development at room temperature in the dark. Then stop solution was added and the plates were read at 450 nm in a plate reader (DIAReader GMBH, Wr. Neudorf, Austria). The results were analyzed using Microsoft Excel.

[6] = test system: 3T3 NIH mouse embryo fibroblast cell line; assay: MTT cytotoxicity assay; conditions: for Cytotoxicity IC50: 3T3 NIH cells, 48 h
Description: The 3T3-NIH cells were suspended in Dulbecco's Modified Eagle's Medium (DMEM) formulated with 10% FBS. Using flat bottomed plates, cells were plated at a concentration of 6×10^4 cells/mL and incubated for 24 h at 37° C. and 5% CO2 environment. […] Following exposure to each compound, cell viability was assessed by using 0.5 mg/mL of MTT {3-(4,5-dimethylthiazol-2-yl)-2,5-diphenyltetrazolium bromide for 4 h followed by the removal of supernatant and addition of DMSO to solubilize the formazan complex. The plates were read at 540 nm after one minute shaking and readings were processed using MS Excel software. The results were expressed as means±SD of triplicate readings.

Row | SMILES | IC50 (μg/mL) for phagocytes ROS [1] [µg/mL] | % of NO inhibited by 25 μg/mL of compound [2] [%] | also measured
1 | Cc1ccc(-c2nc3ccccc3s2)cc1 [Compound 15] | >100 | 10.8 ± 2.4 | 
2 | Oc1ccccc1-c1nc2ccccc2s1 [Compound 16] | >100 | 20.2 ± 1.5 | 
3 | Clc1cccc(-c2nc3ccccc3s2)c1 [Compound 17] | 81.0 ± 4.1 | 14.1 ± 3.0 | 
4 | Oc1cc(O)c(-c2nc3ccccc3s2)cc1O [Compound 18] | >100 | 78.1±1.6 | IC50 T-cell proliferation [3]: 1.95±0.4; IC50 [4]: 1.1 µg/mL (≈ 4.24 µM); IC50 IL-4 production [5]: 8.0 ± 0.0 µg/mL (≈ 30.9 µM); Cytotoxicity IC50 [6]: 10.4 µg/mL
5 | c1cncc(-c2nc3ccccc3s2)c1 [Compound 19] | >100 | 11.7 ± 1.7 | 
6 | c1ccc2sc(-c3ccncc3)nc2c1 [Compound 20] | 15.5 ± 1.0 | 41.6 ± 4.7 | Cytotoxicity IC50 [6]: >25 µg/mL
7 | Brc1ccc(-c2nc3ccccc3s2)cc1 [Compound 21] | >100 | 11.5 ± 2.7 | 
8 | CCOc1ccc(-c2nc3ccccc3s2)cc1 [Compound 22] | >100 | 23.5 ± 3.7 | 
9 | Fc1ccccc1-c1nc2ccccc2s1 [Compound 23] | >100 | 28.4 ± 2.5 | 
10 | c1csc(-c2nc3ccccc3s2)c1 [Compound 24] | 14.4 ± 2.5 | 30.3 ± 0.3 | Cytotoxicity IC50 [6]: >25 µg/mL; interference with the growth of 3T3 cells ([6]; up to 20 μg/mL): did not interfere with the growth of 3T3 cells
11 | Clc1ccc(-c2nc3ccccc3s2)cc1 [Compound 25] | >100 | 20.6 ± 5.3 | 
12 | Clc1ccc(-c2nc3ccccc3s2)cc1Cl [Compound 26] | >100 | 35.7 ± 1.5 | 
13 | CC(C)Cc1ccc(C(C)C(=O)O)cc1 (centres unmarked) [Ibuprofen, reference compound] |  |  | IC50 ([1]; read-out: IC50 (μg/mL) for phagocytes ROS): 11.8 ± 1.2 µg/mL
